Reference: US20240423995A1, “C-KIT INHIBITORS AND USES FOR TREATING AND PREVENTING INFLAMMATORY CONDITIONS” (GEORGETOWN UNIVERSITY, priority 2023, published 2024)

Columns and labels:
KIT (V559D, V654A) = target: T1, KIT (V559D, V654A) (Homo sapiens, UniProt P10721, V559D/V654A); test: KINOMEscan competition binding screen, KIT (V559D, V654A); details: for remaining binding at 10 µM: read-out: % Ctrl @ 10 μM
T1 construct: purchased Eurofins DiscoverX Corporation
Method: (§1) The KINOMEscan™ screening platform (Eurofins DiscoverX Corporation, San Diego, USA) was performed using an active site-directed competition binding assay to quantitatively measure interactions between BK40143, BK40197, BK40195, and BK40196 and more than 450 human kinases and disease relevant mutant variants. […] Screening “hits” were identified by measuring the amount of kinase captured in test (BK40143, BK40197, BK40195, and BK40196) versus control samples by using a quantitative and ultra-sensitive qPCR method that detects the associated DNA label. BK40143, BK40197, BK40195, and BK40196 were screened at 10 μM concentration, and results for primary screen binding interactions were reported as ‘% Ctrl’ (POC), where lower numbers indicate stronger hits and calculated as follows:
(§2) [formula] • test compound=BK40143 or BK40197 or BK40195 or BK40196 • negative control=DMSO (100% Ctrl) • positive control=control compound (0% Ctrl)
(§3) Based on screening data of profiled compounds, a proportional relationship between primary screening results and corresponding compound/target affinities can be described as binding constants (Kd values) for the indicated ranges of percent of control (PoC) values, with tighter binding (higher affinity) interactions associated with lower PoC values, and weaker binding (lower affinity) associated with higher PoC values. Briefly, kinase-tagged T7 phage strains were grown in parallel in 24-well blocks in an E. coli host derived from the BL21 strain. E. coli were grown to log-phase and infected with T7 phage from a frozen stock (multiplicity of infection=0.4) and incubated with shaking at 32° C. until lysis (90-150 minutes). The lysates were centrifuged (6,000×g) and filtered ([…]) to remove cell debris. The remaining kinases were produced in HEK-293 cells and subsequently tagged with DNA for qPCR detection. Streptavidin-coated magnetic beads were treated with biotinylated small molecule ligands for 30 minutes at room temperature to generate affinity resins for kinase assays. The liganded beads were blocked with excess biotin and washed with blocking buffer (SeaBlock (Pierce), 1% BSA, 0.05% Tween 20, 1 mM DTT) to remove unbound ligand and to reduce non-specific phage binding. Binding reactions were assembled by combining kinases, liganded affinity beads, and test compounds in 1× binding buffer (20% SeaBlock, 0.17×PBS, 0.05% Tween 20, 6 mM DTT). Test compounds were prepared as 100× stocks in 100% DMSO and directly diluted into the assay. All reactions were performed in polypropylene 384-well plates in a final volume of 0.02 ml. The assay plates were incubated at room temperature with shaking for 1 hour and the affinity beads were washed with wash buffer (1×PBS, 0.05% Tween 20). The beads were then re-suspended in elution buffer (1×PBS, 0.05% Tween 20, 0.5 μM non-biotinylated affinity ligand) and incubated at room temperature with shaking for 30 minutes. The kinase concentration in the eluates was measured by qPCR.

DDR1 = target: T2, DDR1 (Homo sapiens, UniProt Q08345); test: KINASESEEKER competition binding assay, DDR1; details: minimum 8-point curve, duplicate
T2 construct: purchased Luceome Biotechnologies, LLC
Method: (§4) Kinase assays were performed using KINASESEEKER™ (Luceome Biotechnologies, LLC; Tucson, AZ). KINASESEEKER™ is a homogeneous competition binding assay in which the displacement of an active site-dependent probe by an inhibitor is measured by a change in luminescence signal. Luminescence readout translates into a highly sensitive and robust assay with low background and minimal interference from test compounds. See J. Am. Chem. Soc., 2010, 132, 11727-11735.
(§5) Stock solutions of compounds were serially diluted in DMSO to make assay stocks. Prior to initiating IC50 determination, the test compounds were evaluated for false positives against split-luciferase. The compounds were screened against kinases at a minimum of 8 different concentrations in duplicate. For kinase assays, a 24 μL aliquot of lysate containing Cfluc-kinase and Fos-Nfluc was incubated for 2 hours with either 1 μL of DMSO (for no-inhibitor control) or compound solution in DMSO in presence of a kinase specific probe. 80 μL of luciferin assay reagent was added to each solution and luminescence was immediately measured on a luminometer.
(§6) The % Inhibition and % Activity Remaining was calculated using the following equation: […]
(§7) The % Activity Remaining was plotted against compound concentration and the IC50 was determined for each compound using a minimum 8-point curve.

KIT (V559D, T670I) = target: T3, KIT (V559D, T670I) (Homo sapiens, UniProt P10721, T670I/V559D); test: KINOMEscan competition binding screen, KIT (V559D, T670I); details: for remaining binding at 10 µM: read-out: % Ctrl @ 10 μM
T3 construct: purchased Eurofins DiscoverX Corporation
Method: as §1, §2, §3

KIT = target: T4, KIT (Homo sapiens, UniProt P10721); test: KINOMEscan competition binding screen, KIT; details: for remaining binding at 10 µM: lower = stronger binding, read-out: % Ctrl @ 10 μM
T4 construct: purchased Eurofins DiscoverX Corporation
Method: as §1, §2, §3

DDR2 = target: T5, DDR2 (Homo sapiens, UniProt Q16832); test: KINASESEEKER competition binding assay, DDR2; details: minimum 8-point curve, duplicate
T5 construct: purchased Luceome Biotechnologies, LLC
T5 sequence (Q16832 22-855): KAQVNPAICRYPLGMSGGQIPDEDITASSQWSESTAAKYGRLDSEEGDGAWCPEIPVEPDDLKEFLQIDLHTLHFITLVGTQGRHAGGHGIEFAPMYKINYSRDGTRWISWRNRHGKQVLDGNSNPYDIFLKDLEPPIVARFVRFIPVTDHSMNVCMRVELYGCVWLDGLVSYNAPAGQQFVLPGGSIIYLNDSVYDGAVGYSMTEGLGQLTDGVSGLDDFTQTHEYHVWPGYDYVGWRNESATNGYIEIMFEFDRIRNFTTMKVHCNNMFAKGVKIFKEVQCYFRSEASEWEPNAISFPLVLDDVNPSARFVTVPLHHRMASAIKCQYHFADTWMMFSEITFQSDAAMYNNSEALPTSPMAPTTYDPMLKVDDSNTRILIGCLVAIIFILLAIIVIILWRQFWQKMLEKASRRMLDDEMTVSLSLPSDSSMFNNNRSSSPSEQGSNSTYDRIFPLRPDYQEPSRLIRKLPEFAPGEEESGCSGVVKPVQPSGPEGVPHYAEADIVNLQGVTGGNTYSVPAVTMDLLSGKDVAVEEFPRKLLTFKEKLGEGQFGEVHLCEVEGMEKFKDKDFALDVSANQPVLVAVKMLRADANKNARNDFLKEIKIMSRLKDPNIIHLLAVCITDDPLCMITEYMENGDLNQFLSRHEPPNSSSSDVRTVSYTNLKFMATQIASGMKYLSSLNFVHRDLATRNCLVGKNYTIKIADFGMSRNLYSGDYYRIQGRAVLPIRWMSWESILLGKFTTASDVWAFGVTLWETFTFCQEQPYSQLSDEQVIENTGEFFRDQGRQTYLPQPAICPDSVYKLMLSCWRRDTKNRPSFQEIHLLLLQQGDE
Method: as §4, §5, §6, §7

T2 sequence (Q08345 19-913): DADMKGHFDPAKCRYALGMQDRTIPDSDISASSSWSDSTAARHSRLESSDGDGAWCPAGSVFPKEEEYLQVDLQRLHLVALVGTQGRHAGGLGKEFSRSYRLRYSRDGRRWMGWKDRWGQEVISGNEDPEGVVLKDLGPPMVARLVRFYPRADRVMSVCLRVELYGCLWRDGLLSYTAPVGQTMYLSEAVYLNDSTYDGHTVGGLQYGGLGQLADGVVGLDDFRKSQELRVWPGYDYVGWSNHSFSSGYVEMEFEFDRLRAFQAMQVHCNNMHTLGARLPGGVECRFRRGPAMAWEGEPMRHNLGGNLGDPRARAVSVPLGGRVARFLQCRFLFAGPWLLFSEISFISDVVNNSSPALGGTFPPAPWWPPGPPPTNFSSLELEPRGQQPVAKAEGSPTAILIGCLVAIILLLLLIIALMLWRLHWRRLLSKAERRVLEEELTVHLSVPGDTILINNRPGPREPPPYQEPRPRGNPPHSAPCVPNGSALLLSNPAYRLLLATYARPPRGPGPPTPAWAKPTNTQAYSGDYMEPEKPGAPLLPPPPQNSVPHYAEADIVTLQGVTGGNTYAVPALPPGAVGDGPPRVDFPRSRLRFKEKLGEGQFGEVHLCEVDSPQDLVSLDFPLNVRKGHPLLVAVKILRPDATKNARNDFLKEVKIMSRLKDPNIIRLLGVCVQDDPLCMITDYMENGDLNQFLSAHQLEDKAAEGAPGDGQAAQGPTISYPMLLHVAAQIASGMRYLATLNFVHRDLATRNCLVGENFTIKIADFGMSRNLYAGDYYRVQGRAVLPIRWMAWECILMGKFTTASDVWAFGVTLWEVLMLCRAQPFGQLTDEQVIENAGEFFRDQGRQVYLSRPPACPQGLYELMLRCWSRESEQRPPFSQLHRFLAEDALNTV
T3 sequence (P10721 26-976 V559D/T670I): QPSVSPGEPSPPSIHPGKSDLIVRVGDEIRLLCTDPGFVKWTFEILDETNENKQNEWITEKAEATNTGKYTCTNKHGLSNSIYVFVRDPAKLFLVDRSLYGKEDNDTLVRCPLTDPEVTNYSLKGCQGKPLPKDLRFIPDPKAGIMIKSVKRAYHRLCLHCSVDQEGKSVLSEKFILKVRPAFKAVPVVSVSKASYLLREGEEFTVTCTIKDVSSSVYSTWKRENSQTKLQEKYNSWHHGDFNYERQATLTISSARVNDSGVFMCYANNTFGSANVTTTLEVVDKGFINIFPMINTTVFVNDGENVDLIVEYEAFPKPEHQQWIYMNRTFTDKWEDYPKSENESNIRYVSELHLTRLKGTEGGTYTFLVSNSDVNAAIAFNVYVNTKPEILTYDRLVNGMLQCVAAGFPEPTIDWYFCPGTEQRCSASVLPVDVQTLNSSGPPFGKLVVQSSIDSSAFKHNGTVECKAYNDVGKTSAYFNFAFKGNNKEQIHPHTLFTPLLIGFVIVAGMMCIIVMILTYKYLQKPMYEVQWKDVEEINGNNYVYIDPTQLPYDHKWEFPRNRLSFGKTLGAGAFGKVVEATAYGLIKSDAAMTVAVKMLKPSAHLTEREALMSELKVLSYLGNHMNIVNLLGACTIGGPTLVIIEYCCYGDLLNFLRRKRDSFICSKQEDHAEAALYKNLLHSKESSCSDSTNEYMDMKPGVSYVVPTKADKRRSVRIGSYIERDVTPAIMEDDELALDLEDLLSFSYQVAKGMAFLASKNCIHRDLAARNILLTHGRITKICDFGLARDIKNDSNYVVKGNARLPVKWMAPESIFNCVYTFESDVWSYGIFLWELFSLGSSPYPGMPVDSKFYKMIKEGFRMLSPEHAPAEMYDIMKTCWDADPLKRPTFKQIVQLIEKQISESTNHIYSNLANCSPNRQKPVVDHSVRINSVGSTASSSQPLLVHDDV
T1 sequence (P10721 26-976 V559D/V654A): as the sequence (P10721 26-976 V559D/T670I) above, with V629A, I645T counted along it
T4 sequence (P10721 26-976): as the sequence (P10721 26-976 V559D/T670I) above, with D534V, I645T counted along it

inhibition at 10 µM (KIT (V559D, V654A))	remaining binding at 10 µM (KIT (V559D, V654A))	IC50 (DDR1)	inhibition at 10 µM (KIT (V559D, T670I))	remaining binding at 10 µM (KIT (V559D, T670I))	inhibition at 10 µM (KIT)	remaining binding at 10 µM (KIT)	IC50 (DDR2)	Structure (SMILES)
82%	18%	7050 ± 1050 nM	81%	19%	100%	0%	6030 ± 930 nM	Cc1cccc(-c2cc3nccc(Nc4ccccc4)c3s2)c1 [BK40143]
97.5%	2.5%	2200 ± 260 nM	97.5%	2.5%	100%	0%	1900 ± 260 nM	COc1cccc(Nc2ccnc3cc(-c4cccc(C)c4)sc23)c1 [BK40195]
98.7%	1.3%	1070 ± 130 nM	97.6%	2.4%	100%	0%	922 ± 130 nM	Cc1cccc(-c2cc3nccc(Nc4cccc(O)c4)c3s2)c1 [BK40196]

Structure (SMILES)	inhibition at 10 µM (KIT (V559D, V654A))	remaining binding at 10 µM (KIT (V559D, V654A))	IC50 (DDR1)	inhibition at 10 µM (KIT (V559D, T670I))	remaining binding at 10 µM (KIT (V559D, T670I))	inhibition at 10 µM (KIT)	remaining binding at 10 µM (KIT)	IC50 (DDR2)
Cc1cccc(-c2cc3nccc(N4CCOCC4)c3s2)c1 [BK40197]	79%	21%	–	80%	20%	97.7%	0.3%	–
